According to paper PMC7932537, “Quantitative profiling of protease specificity” (PLoS Computational Biology, 2021):

How the values were obtained:
MMP-9 [1] = experiment: Substrate phage display with NGS: relative probability (RP) of P3-P1' tetramer clusters; format: biochemical, human; conditions: MMP9; RP of the substrate's P3-P1' tetramer, substrate phage display with NGS;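 further: ratio of tetramer probability after protease selection to that in naive phage library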
MMP-2 = molecular target: T1, MMP-2 (Homo sapiens, UniProt P08253); experiment: K(obs) of individual phage substrates (set of 1369); format: biochemical; conditions: MMP2; individual phage substrate from the set of 1369 peptides; hyphen in the sequence marks the cleavage position
T1 sequence (P08253 110-660): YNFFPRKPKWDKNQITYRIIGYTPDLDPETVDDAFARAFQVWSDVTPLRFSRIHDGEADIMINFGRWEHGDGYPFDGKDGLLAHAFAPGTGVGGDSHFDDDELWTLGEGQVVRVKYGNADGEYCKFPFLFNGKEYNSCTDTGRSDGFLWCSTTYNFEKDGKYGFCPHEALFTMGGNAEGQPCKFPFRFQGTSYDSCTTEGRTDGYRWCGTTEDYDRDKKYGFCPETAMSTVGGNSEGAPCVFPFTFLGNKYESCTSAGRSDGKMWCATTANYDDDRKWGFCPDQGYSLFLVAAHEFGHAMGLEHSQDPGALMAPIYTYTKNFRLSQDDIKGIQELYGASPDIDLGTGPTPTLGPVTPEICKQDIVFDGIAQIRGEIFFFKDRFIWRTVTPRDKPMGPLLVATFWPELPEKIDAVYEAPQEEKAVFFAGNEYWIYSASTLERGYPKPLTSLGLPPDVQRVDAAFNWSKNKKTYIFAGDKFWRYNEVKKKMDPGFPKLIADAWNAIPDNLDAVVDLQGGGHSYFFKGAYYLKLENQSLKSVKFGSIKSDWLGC

MMP-9 [2] = molecular target: MMP-9 (Homo sapiens, UniProt P14780); experiment: as above; format: biochemical; conditions: MMP9; individual phage substrate of the set of 1369 peptides; dash in sequence marks cleavage position
Chain of MMP-9 (Homo sapiens, UniProt P14780) (P14780 94-707): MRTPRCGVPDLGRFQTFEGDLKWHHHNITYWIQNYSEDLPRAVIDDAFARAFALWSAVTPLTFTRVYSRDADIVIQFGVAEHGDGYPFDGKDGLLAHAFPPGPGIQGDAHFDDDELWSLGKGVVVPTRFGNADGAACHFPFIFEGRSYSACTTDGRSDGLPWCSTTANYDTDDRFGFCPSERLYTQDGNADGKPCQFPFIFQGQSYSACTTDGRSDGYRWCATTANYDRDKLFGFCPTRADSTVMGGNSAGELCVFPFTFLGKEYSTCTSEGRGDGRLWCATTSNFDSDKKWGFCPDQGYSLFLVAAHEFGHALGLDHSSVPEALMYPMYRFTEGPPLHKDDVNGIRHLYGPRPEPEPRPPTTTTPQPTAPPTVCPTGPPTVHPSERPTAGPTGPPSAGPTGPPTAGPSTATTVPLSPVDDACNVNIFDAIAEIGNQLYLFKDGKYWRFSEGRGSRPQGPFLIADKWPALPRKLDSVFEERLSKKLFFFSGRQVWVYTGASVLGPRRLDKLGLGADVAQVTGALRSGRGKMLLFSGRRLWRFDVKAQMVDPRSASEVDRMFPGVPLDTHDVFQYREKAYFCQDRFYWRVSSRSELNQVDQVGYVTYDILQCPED

Substance | relative probability (RP) (MMP-9 [1]) | Kobs (MMP-2) | Kobs (MMP-9 [2])
TNVFW-YTASG | 29.291 | 2409.72 M⁻¹ s⁻¹ | 10866.7 M⁻¹ s⁻¹
TPPSS-LTASG | 46.2595 | 12792.1 M⁻¹ s⁻¹ | 12792.1 M⁻¹ s⁻¹
TPPVE-LTASG | 35.1044 | 12792.1 M⁻¹ s⁻¹ | 12792.1 M⁻¹ s⁻¹
TQPSP-FTASG | 37.3217 | 12792.1 M⁻¹ s⁻¹ | 9740.44 M⁻¹ s⁻¹
TSARK-LTASG | 0 | 323.705 M⁻¹ s⁻¹ | 1112.44 M⁻¹ s⁻¹
TSPGL-LTASG | 19.6268 | 12792.1 M⁻¹ s⁻¹ | 690.17 M⁻¹ s⁻¹
TVLGN-LTASG | 10.3813 | 12792.1 M⁻¹ s⁻¹ | 690.17 M⁻¹ s⁻¹
TVPWS-VTASG | 31.0554 | 1071.29 M⁻¹ s⁻¹ | 12792.1 M⁻¹ s⁻¹
VDVSF-LTASG | 1.252 | 8941.32 M⁻¹ s⁻¹ | 912.511 M⁻¹ s⁻¹
VEAVA-ITASG | 21.5568 | 5090.5 M⁻¹ s⁻¹ | 4922.1 M⁻¹ s⁻¹
VFPQG-MTASG | 46.1377 | 2476.66 M⁻¹ s⁻¹ | 8321.48 M⁻¹ s⁻¹
VGPAF-LTASG | 38.454 | 12792.1 M⁻¹ s⁻¹ | 12792.1 M⁻¹ s⁻¹
VKPSG-VTASG | 31.8733 | 12792.1 M⁻¹ s⁻¹ | 12792.1 M⁻¹ s⁻¹
VKPSK-LTASG | 38.9571 | 12792.1 M⁻¹ s⁻¹ | 12792.1 M⁻¹ s⁻¹
VLFGA-LTASG | 2.95 | 8321.48 M⁻¹ s⁻¹ | 386.839 M⁻¹ s⁻¹
VLLGN-FTASG | 0.6963 | 12792.1 M⁻¹ s⁻¹ | 690.17 M⁻¹ s⁻¹
VMPSG-FTASG | 36.6478 | 8321.48 M⁻¹ s⁻¹ | 12792.1 M⁻¹ s⁻¹
VQLAY-FTASG | 0.5079 | 12792.1 M⁻¹ s⁻¹ | 1030.73 M⁻¹ s⁻¹
VVPNN-LTASG | 38.7188 | 12792.1 M⁻¹ s⁻¹ | 12792.1 M⁻¹ s⁻¹

Substance | relative probability (RP) (MMP-9 [1]) | Kobs (MMP-2) | Kobs (MMP-9 [2])
VYPGK-MTASG | 16.9669 | 8941.32 M⁻¹ s⁻¹ | 1239.69 M⁻¹ s⁻¹
WAINA-LTASG | 1.369 | 4922.1 M⁻¹ s⁻¹ | 551.253 M⁻¹ s⁻¹
WDIRS-LTASG | 30.8005 | 12792.1 M⁻¹ s⁻¹ | 9740.44 M⁻¹ s⁻¹
WGTLA-LTASG | 8.919 | 1112.44 M⁻¹ s⁻¹ | 4613.14 M⁻¹ s⁻¹
WNPSY-LTASG | 40.8983 | 12792.1 M⁻¹ s⁻¹ | 8941.32 M⁻¹ s⁻¹
WQVRY-LTASG | 32.3577 | 12792.1 M⁻¹ s⁻¹ | 12792.1 M⁻¹ s⁻¹
WRPFS-YTASG | 43.4281 | 12792.1 M⁻¹ s⁻¹ | 12792.1 M⁻¹ s⁻¹
WSPSS-YTASG | 41.6306 | 12792.1 M⁻¹ s⁻¹ | 3344.37 M⁻¹ s⁻¹
WTPRG-NTASG | 15.8425 | 231.616 M⁻¹ s⁻¹ | 2409.72 M⁻¹ s⁻¹
WYPSK-LTASG | 38.9571 | 12792.1 M⁻¹ s⁻¹ | 10866.7 M⁻¹ s⁻¹
YASIR-TASGA | 0.562 | 12792.1 M⁻¹ s⁻¹ | 2545.25 M⁻¹ s⁻¹
YGPRA-ITASG | 47.8426 | 12792.1 M⁻¹ s⁻¹ | 12792.1 M⁻¹ s⁻¹
YGPSL-LTASG | 32.4935 | 12792.1 M⁻¹ s⁻¹ | 12792.1 M⁻¹ s⁻¹
YHPIS-LTASG | 42.7806 | 12792.1 M⁻¹ s⁻¹ | 12792.1 M⁻¹ s⁻¹
YIPLV-YTASG | 9.417 | 0 M⁻¹ s⁻¹ | 1239.69 M⁻¹ s⁻¹
YIPTA-FTASG | 24.5969 | 12792.1 M⁻¹ s⁻¹ | 9740.44 M⁻¹ s⁻¹
YKPVY-YTASG | 30.5191 | 12792.1 M⁻¹ s⁻¹ | 12792.1 M⁻¹ s⁻¹
YSTLR-TASGA | 0 | 12792.1 M⁻¹ s⁻¹ | 1239.69 M⁻¹ s⁻¹
